Where two headings read alike, the source gives them in different places.

What all share (assay): Biochemical inhibition assay, fluorogenic substrate FSR-AMC
For assay [1], the target named is KLK6 (Homo sapiens, UniProt Q92876).
Assay [2] addresses Thrombin (Homo sapiens, UniProt P00734).
The target in assay [3] is Trypsin (Homo sapiens, UniProt P07477).
Assay [4] has as its target Factor Xa (Homo sapiens, UniProt P00742).
[5] abbreviates: read-out: KLK6 IC50, KLK6 5 nM (produced in insect cells), 30 min incubation with inhibitor, FSR-AMC 20 µM, Tris pH 7.5.
[6] abbreviates: read-out: Thrombin IC50, Thrombin 9.8·10^-5 NIH unit/mL, 30 min incubation with inhibitor, FSR-AMC 20 µM, Tris pH 7.5.
The mark [7] stands for this setting: read-out: Trypsin IC50, Trypsin 0.88 ng/mL, 30 min incubation with inhibitor, FSR-AMC 20 µM, Tris pH 7.5.
Where [8] appears, read: read-out: Factor Xa IC50, Factor Xa 4 nM, 30 min incubation with inhibitor, FSR-AMC 20 µM, Tris pH 7.5.

Sequence of Factor Xa (P00742 235-488 limits assumed): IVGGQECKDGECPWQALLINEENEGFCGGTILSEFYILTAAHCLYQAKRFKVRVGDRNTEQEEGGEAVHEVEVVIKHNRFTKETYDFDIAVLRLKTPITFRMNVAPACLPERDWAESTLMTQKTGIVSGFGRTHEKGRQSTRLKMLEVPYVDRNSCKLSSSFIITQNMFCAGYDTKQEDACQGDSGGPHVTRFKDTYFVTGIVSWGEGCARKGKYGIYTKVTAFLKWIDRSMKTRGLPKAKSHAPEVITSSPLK
Sequence of Factor Xa (P00742 41-179 partner limits assumed): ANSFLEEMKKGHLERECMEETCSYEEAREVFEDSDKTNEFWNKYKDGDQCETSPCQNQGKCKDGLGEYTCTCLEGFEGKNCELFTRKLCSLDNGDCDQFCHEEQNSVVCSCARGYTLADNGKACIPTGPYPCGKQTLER

In general, IC50 refers to the point on the concentration scale where inhibition reaches its midpoint. For the molecule `Cc1nn(-c2ccccc2)c(C)c1NC(=O)COC(=O)Cn1ccc2ccccc21` [compound 11, 2-((3,5-dimethyl-1-phenyl-1H-pyrazol-4-yl)amino)-2-oxoethyl 2-(1H-indol-1-yl)acetate], the IC50 in assay [1] was 14.5 µM; in assay [2] it was above 200 µM; in assay [3], above 200 µM; in assay [4], above 200 µM.

Turning to `Cc1nn(-c2ccccc2[N+](=O)[O-])c(C)c1NC(=O)COC(=O)Cn1c(C)cc2ccccc21` [compound 5, 2-((3,5-dimethyl-1-(2-nitrophenyl)-1H-pyrazol-4-yl)amino)-2-oxoethyl 2-(2-methyl-1H-indol-1-yl)acetate], the IC50 in assay [1] is 0.172 µM; in assay [2] it was above 200 µM; in assay [3], 51 µM; in assay [4], 50 µM.

With `Cc1nn(-c2ccccc2)c(C)c1NC(=O)COC(=O)Cn1c(C(C)C)cc2ccccc21` [compound 32], the IC50 is 3.36 µM in assay [1] (setting [5]), above 50 µM in assay [2] (setting [6]), above 50 µM in assay [3] (setting [7]) and above 50 µM in assay [4] (setting [8]).

Consider `Cc1[nH]c2ccccc2c1CC(=O)OCC(=O)Nc1ccc(F)cn1` [compound 72], for which the IC50 in assay [1] (setting [5]) came out at 12.3 µM; in assay [2] (setting [6]) it was 60.3 µM; in assay [3] (setting [7]) it was 50.4 µM; in assay [4] (setting [8]), 65.9 µM.

For the molecule `COc1cccc(CC(=O)OCC(=O)Nc2c(C)nn(-c3ccccc3)c2C)c1` [compound 53], the IC50 in assay [1] (setting [5]) is 30 µM; in assay [2] (setting [6]), above 200 µM; in assay [3] (setting [7]), above 200 µM; in assay [4] (setting [8]), above 200 µM.

Turning to `Cc1[nH]c2ccccc2c1CC(=O)OCC(=O)NCc1ncc[nH]1` [compound 85], the IC50 was 172 µM in assay [1] (setting [5]), above 200 µM in assay [2] (setting [6]), above 200 µM in assay [3] (setting [7]) and 157 µM in assay [4] (setting [8]).

On to `Cc1nn(-c2ccccc2)c(C)c1NC(=O)COC(=O)Cc1ccco1` [compound 68], for which the IC50 in assay [1] (setting [5]) is 46 µM; in assay [2] (setting [6]), above 200 µM; in assay [3] (setting [7]), above 200 µM; in assay [4] (setting [8]), above 200 µM.

Turning to `Cc1nn(-c2ccccc2)c(C)c1NC(=O)COC(=O)Cn1ccc2cccc(Cl)c21` [compound 31], the IC50 in assay [1] (setting [5]) was 1.2 µM; in assay [2] (setting [6]) it was above 50 µM; in assay [3] (setting [7]), above 50 µM; in assay [4] (setting [8]) it was above 50 µM.

Turning to `Cc1cc2ccccc2n1CC(=O)OCC(=O)Nc1ccccc1` [compound 24], the IC50 in assay [1] (setting [5]) is 9.96 µM; in assay [2] (setting [6]) it was above 50 µM; in assay [3] (setting [7]), above 50 µM; in assay [4] (setting [8]), above 50 µM.

On to `Cc1nn(-c2ccccc2)c(C)c1NC(=O)C(C)OC(=O)Cn1c(C)cc2ccccc21` (racemic) [compound 37], for which the IC50 is 1.48 µM in assay [1] (setting [5]), above 50 µM in assay [2] (setting [6]), above 50 µM in assay [3] (setting [7]) and above 50 µM in assay [4] (setting [8]).

As for `Cc1nn(-c2ccccc2)c(C)c1NC(=O)COC(=O)Cc1coc2ccccc12` [compound 41], the IC50 was 31.3 µM in assay [1] (setting [5]), above 50 µM in assay [2] (setting [6]), above 50 µM in assay [3] (setting [7]) and above 50 µM in assay [4] (setting [8]).

With `Cc1nn(-c2ccccc2)c(C)c1NC(=O)COC(=O)Cn1cc(C)c2ccccc21` [compound 14, 2-((3,5-dimethyl-1-phenyl-1H-pyrazol-4-yl)amino)-2-oxoethyl 2-(3-methyl-1H-indol-1-yl)acetate], the IC50 in assay [1] was 16.2 µM; in assay [2], above 200 µM; in assay [3], above 200 µM; in assay [4], above 200 µM.

For `COc1ccc(NC(=O)COC(=O)Cc2c(C)[nH]c3ccccc23)cc1` [compound 80], the IC50 was 6.55 µM in assay [1] (setting [5]), above 200 µM in assay [2] (setting [6]), above 200 µM in assay [3] (setting [7]) and above 200 µM in assay [4] (setting [8]).

With `Cc1nn(-c2ccc(NCCCCO)cc2)c(C)c1NC(=O)COC(=O)Cn1c(C)cc2ccccc21` [compound 19], the IC50 was 0.264 µM in assay [1] (setting [5]), above 200 µM in assay [2] (setting [6]), 21.3 µM in assay [3] (setting [7]) and above 200 µM in assay [4] (setting [8]).

As for `Cc1nn(-c2ccccc2)c(C)c1NC(=O)COC(=O)Cc1cc(Cl)sc1Cl` [compound 61], the IC50 in assay [1] (setting [5]) was 2.33 µM; in assay [2] (setting [6]), above 200 µM; in assay [3] (setting [7]) it was above 200 µM; in assay [4] (setting [8]) it was above 200 µM.

Consider `Cc1cc2ccccc2n1CC(=O)OCC(=O)Nc1ccc(N2CCOCC2)cc1` [compound 35], for which the IC50 in assay [1] (setting [5]) is 1.41 µM; in assay [2] (setting [6]) it was above 50 µM; in assay [3] (setting [7]), above 50 µM; in assay [4] (setting [8]), above 50 µM.

As to `Cc1[nH]c2ccccc2c1CC(=O)OCC(=O)Nc1cccc(C(N)=O)c1` [compound 84], the IC50 in assay [1] (setting [5]) worked out at 3.27 µM; in assay [2] (setting [6]) it was 90.6 µM; in assay [3] (setting [7]) it was 82.1 µM; in assay [4] (setting [8]), 67.5 µM.

As for `Cc1nn(-c2ccccc2)c(C)c1NC(=O)COC(=O)Cn1c(C(F)(F)F)cc2ccccc21` [compound 16], the IC50 is 0.158 µM in assay [1] (setting [5]), above 200 µM in assay [2] (setting [6]), above 200 µM in assay [3] (setting [7]) and above 200 µM in assay [4] (setting [8]).

For `Cc1nn(C)c(C)c1NC(=O)COC(=O)Cn1c(C)cc2ccccc21` [compound 2, 2-oxo-2-((1,3,5-trimethyl-1H-pyrazol-4-yl)amino)ethyl 2-(2-methyl-1H-indol-1-yl)acetate], the IC50 in assay [1] was 1.25 µM; in assay [2], above 200 µM; in assay [3], 71.5 µM; in assay [4], above 200 µM.

As for `Cc1ccccc1NC(=O)COC(=O)Cc1c(C)[nH]c2ccccc12` [compound 78], the IC50 is 4.73 µM in assay [1] (setting [5]), above 200 µM in assay [2] (setting [6]), above 200 µM in assay [3] (setting [7]) and above 200 µM in assay [4] (setting [8]).

For `Cc1nn(-c2ccccc2)c(C)c1NC(=O)COC(=O)Cn1c(C)c(C)c2ccccc21` [compound 15], the IC50 is 4.72 µM in assay [1] (setting [5]), above 200 µM in assay [2] (setting [6]), 144 µM in assay [3] (setting [7]) and above 200 µM in assay [4] (setting [8]).

Turning to `CC(=O)Nc1cccc(CC(=O)OCC(=O)Nc2c(C)nn(-c3ccccc3)c2C)c1` [compound 47], the IC50 in assay [1] (setting [5]) is 31.4 µM; in assay [2] (setting [6]) it was above 200 µM; in assay [3] (setting [7]) it was above 200 µM; in assay [4] (setting [8]), above 200 µM.

For `Cc1nn(-c2ccccc2)c(C)c1NC(=O)COC(=O)Cc1ccccc1C(F)(F)F` [compound 63], the IC50 in assay [1] (setting [5]) was 2.35 µM; in assay [2] (setting [6]), above 200 µM; in assay [3] (setting [7]), above 200 µM; in assay [4] (setting [8]) it was above 200 µM.

`Cc1nn(-c2ccccc2)c(C)c1NC(=O)COC(=O)Cc1cccc(F)c1` [compound 64]: the IC50 in assay [1] (setting [5]) was 22 µM; in assay [2] (setting [6]) it was above 200 µM; in assay [3] (setting [7]), above 200 µM; in assay [4] (setting [8]) it was above 200 µM.

Consider `Cc1ccc(NC(=O)COC(=O)Cc2c(C)[nH]c3ccccc23)cc1` [compound 74], for which the IC50 in assay [1] (setting [5]) is 4.57 µM; in assay [2] (setting [6]), above 200 µM; in assay [3] (setting [7]), above 200 µM; in assay [4] (setting [8]), above 200 µM.

`Cc1[nH]c2ccccc2c1CC(=O)OCC(=O)NC1CCCC1` [compound 71]: the IC50 is 78.7 µM in assay [1] (setting [5]), above 200 µM in assay [2] (setting [6]), above 200 µM in assay [3] (setting [7]) and above 200 µM in assay [4] (setting [8]).

For `Cc1nn(-c2ccccc2C(F)(F)F)c(C)c1NC(=O)COC(=O)Cn1c(C)cc2ccccc21` [compound 8, 2-((3,5-dimethyl-1-(2-(trifluoromethyl)phenyl)-1H-pyrazol-4-yl)amino)-2-oxoethyl 2-(2-methyl-1H-indol-1-yl)acetate], the IC50 was 0.258 µM in assay [1], above 200 µM in assay [2], 126 µM in assay [3] and 139 µM in assay [4].

(Values after patent publication EP3305781A1, “CHEMICAL SUBSTANCES WHICH INHIBIT THE ENZYMATIC ACTIVITY OF HUMAN KALLIKREIN-RELATED PEPTIDASE 6 (KLK6)” (Deutsches Krebsforschungszentrum, priority 2016, dated 2018).)
